Source: patent publication US20240041830A1, “CIRCULATING BIOMARKERS OF RESPONSE TO PD-1/PD-L1 BLOCKADE AND GSK-3 INHIBITION” (Brown University, priority 2022, published 2024)

What was measured:
NK-92 = experiment: 10× single-cell sequencing; assay type: cell-based, human; settings: 1 μM, twenty-four hours vs DMSO
Description: (§1) Single-cell RNA sequencing. Single cells were captured and 3′ single-cell gene expression libraries were conducted (Next GEM v3.1) using the 10× Genomics Chromium system by SingulOmics (SingulOmics, New York, NY, USA). Gene expression libraries were sequenced with ˜200 million PE150 reads per sample on Illumina (RRID: SCR_016387) NovaSeq (Illumina, Inc., San Diego, CA, USA). After sequencing, clean reads were then analyzed with human reference genome GRCh38 using Cell Ranger v6.1.2 (RRID: SCR_017344, 10× Genomics, Pleasanton, CA, USA). Data were analyzed and visualized using Loupe Browser (RRID: SCR_018555, 10× Genomics, Pleasanton, CA, USA).
(§2) To determine if there was any heterogeneity in response to drug treatment, the inventors employed a 10× single-cell sequencing analysis on both immune cell lines (TALL-104, NK-92) treated with low-dose 1 μM elraglusib or vehicle control (DMSO) for twenty-four hours. Samples clustered by cell type when aggregate data were visualized using a t-SNE plot (FIG. 3G). […] The inventors noted an increase in immune cell attractant CCL4 in the NK-92 cells and an increase in immune cell chemoattractant CXCR4 in the TALL-104 cells.

TALL-104 = experiment: 10× single-cell sequencing; assay type: cell-based, human; settings: 1 μM, twenty-four hours vs DMSO
Description: as §1, §2

[1] = test system: tumor biopsies (colorectal cancer, pancreatic cancer); experiment: GeoMx Digital Spatial Profiling of patient tumor biopsies; assay type: in vivo, human
From the text: Digital spatial profiling. An Agilent Technologies hybridization oven was used for baking tissue onto slides (Agilent, Santa Clara, CA, USA). A NanoString GeoMx® Digital Spatial Profiler (DSP) instrument (NanoString, Seattle, WA, USA) was used to scan slides, identify regions of interest (ROIs), and collect photocleavable barcodes according to manufacturer instructions. A custom panel was designed to include the following proteins: Ms IgG1, Ms IgG2a, Rb IgG, GAPDH, Histone H3, S6, Beta-2-microglobulin, CD31, CD45, Ki-67, ARG1, CD11 b, CD11 c, CD14, CD163, CD39, CD40, CD68, HLA-DR, GZMB, CD20, CD3, CD34, CD4, CD56, CD66b, CD8, Foxp3, Fibronectin, 4-1BB, B7-H3, CTLA4, GITR, IDO1, LAG3, OX40L, STING, Tim-3, VISTA, Bcl-2, ER-α, EpCAM, Her2, MART1, NY-ESO-1, PR, PTEN, PanCk, SMA, CD127, CD25, CD27, CD44, CD45RO, CD80, ICOS, PD-1, PD-L1, and PD-L2. An Eppendorf MasterCycler Gradient Thermal Cycler was used to generate the Illumina sequencing libraries from the photocleaved tags. (Eppendorf, Hamburg, Germany). An Agilent Fragment Analyzer (RRID: SCR_019417) was used for library size distribution analysis with a high-sensitivity NGS Fragment Kit (Cat #DNF-474-0500, Agilent, Santa Clara, CA, USA). qPCR for quantification was run using an Illumina-compatible KAPA Library Quantification Kits (ROX Low) (cat #KK4873) on an Applied Biosystems ViiA 7 Real-Time qPCR/PCR Thermal Cycler System (Applied Biosystems, San Francisco, CA, USA) and was analyzed using QuantStudio software (RRID: SCR_018712). Sequencing was performed using a NextSeq 500/550 High Output Kit v2.5 (75 Cycles) kit (cat #20024906) on an Illumina Sequencing NextSeq 550 System (RRID: SCR_016381, Illumina, San Diego, CA, USA). The initial annotated dataset went through quality control (QC) to check if housekeeper genes and background (isotype) control molecules were themselves correlated with the predictors of interest. Every ROI was tested for raw sequencing reads (segments with <1000 raw reads were removed), % sequencing saturation, defined as (1-deduplicated reads/aligned reads)%, segments below ˜50% were not analyzed), and nuclei count per segment, for which >100 nuclei per segment is generally recommended. Both immunoglobulins (lgGs) and housekeeper genes were highly correlated with one another. Signal to noise (SNR) ratio was calculated using background probes and all probes were detected above the background in at least one ROI. data were normalized based on background IgG expression and all normalization factors were well distributed. Data analysis and visualization were generated using R (RRID: SCR_001905; R Development Core Team, 2020).
PanCK+ expression of immunosuppressive CD39 negatively correlated with time-on-treatment (Tx time) while CD45+ expression of monocyte/macrophage marker CD163 positively correlated with Tx time. The inventors used GeoMx Digital Spatial Profiling (DSP) technology to profile the expression of fifty-nine proteins in tumor biopsies (N=12) from patients treated with elraglusib (N=7). A total of 42% (N=5) of the tumor biopsies analyzed were collected near or before treatment start (pre-treatment) and 58% (N=7) of the biopsies analyzed were collected from post-treatment (average time-on-treatment (Tx time) at post-treatment biopsy: 270 days) (FIG. 7A). Primary tumor types included colorectal cancer (N=4, 33%) and pancreatic cancer (N=8, 67%), while metastatic biopsy tissue sites included lung (N=2, 17%), liver (N=7, 58%), rectum (N=2, 17%), and pleura (N=1, 8%). the inventors analyzed five paired tumor biopsies ([…], 83%), and two unpaired biopsies (N=2 slides total, 17%). Half (N=6, 50%) of the tumor sections were needle biopsies and half (N=6, 50%) were tissue biopsies. All patients included in this analysis were considered responders based on the definition used in the Phase 1 trial that treatment response is equal to disease control greater than 16 weeks. […]

[2] = CD45+ regions, post- vs pre-treatment biopsies
[3] = tumor-infiltrating CD45+ segments, post- vs pre-treatment

Cn1cc(C2=C(c3coc4ccc(F)cc34)C(=O)NC2=O)c2cc3c(cc21)OCO3 [elraglusib]
reduced: ARG1 protein expression [1, 3] | B2M protein expression [1, 3] | CD11c protein expression [1, 3] | CD34 protein expression [1, 3] | CD44 protein expression [1, 3] | CD45R0 protein expression [1, 3] | CD56 protein expression [1, 3] | CD66b protein expression [1, 3] | CD68 protein expression [1, 3] | CD80 protein expression [1, 3] | GITR protein expression [1, 3] | HLA-DR protein expression [1, 3] | IDO1 protein expression [1, 3] | Ki-67 protein expression [1, 3] | PD-1 protein expression [1, 3] | PD-L1 protein expression [1, 3] | PD-L2 protein expression [1, 3] | PTEN protein expression [1, 3] | VISTA protein expression [1, 3]
downregulation: PD-L1 expression ([1]; PanCK+ segments, post- vs pre-treatment biopsies)
increase: CCL4 expression (NK-92) | CD69 expression (NK-92) | CD69 expression (TALL-104) | CXCR4 expression (TALL-104)
decreased: CD11 b protein expression [1, 2] | CD11c protein expression [1, 2] | CD40 protein expression [1, 2] | CD66b protein expression [1, 2] | CD68 protein expression [1, 2] | CD80 protein expression [1, 2] | IDO1 protein expression [1, 2] | LAG3 protein expression [1, 2] | PD-1 protein expression [1, 2] | PD-L1 protein expression [1, 2] | PD-L2 protein expression [1, 2] | VISTA protein expression [1, 2]
elevated: B7-H3 protein expression [1, 3] | CD127 protein expression [1, 3] | CTLA4 protein expression [1, 3] | OX4OL protein expression [1, 3]
decrease: CHI3L1 expression (NK-92) | CHI3L1 expression (TALL-104)
